Assay results: patent US6835715B1, “Mammalian dihydroouabain-like factor and therapeutic compositions” (University of Louisville Research Foundation, Inc., priority 1999, dated 2004)
pIC50: −log10 of the molar value.

Key:
[1] = target: porcine cerebral cortex Na+,K+-ATPase; experiment: Inhibition of Na+,K+-ATPase catalytic activity (phosphate release from ATP); format: biochemical
Description: Dried frozen powder of porcine cerebral cortical tissue (PCC) was reconstituted at 1 Unit/ml in buffer containing; 50 mM Tris-HCl and 2 mM MgCl2, at a pH of 7.2. The reconstituted tissue was then washed three times and resuspended in the same buffer. The protein concentration was determined by BIO-RAD Protein Assay (Bio-Rad, Hercules, Calif.), adjusted to about 1 mg/ml and used both in the catalytic inhibition and ouabain-stimulated phosphorylation experiments (PAGE and Western analysis). The inhibition assay was performed briefly by pipetting 20 μl of sample containing the desired concentration of glycoside (Tris buffer was used for no-inhibitor control) into a well of a microtiter plate placed in a 37° C. water bath for 10 minutes. […] After the incubation period, we added 150 μl of molybdate solution (per liter, 1.0 mmol of molybdate, 11 mmol of sulfuric acid, and 142 ml of Tween 80: methanol solution (12:88 by vol). After 30 minutes of incubation, color development was allowed to proceed for a maximum of 30 min. after which the color intensity was measured by pipetting 150 μl of the reaction mixture from each well to a corresponding well on another microtiter plate. The color intensity is proportional to the release of phosphate ions which is a direct indicator of ATP breakdown and therefore NKA activity. The absorbances were measured simultaneously at 340 nm. […]

anti-ouabain antibody = experiment: Ouabain EIA, cross-reactivity with anti-ouabain antibody; format: binding; conditions: for cross-reactivity with ouabain antibody: ouabain = 100%
Description: UV spectral properties, molar absorptivity, and concentrations of these endogenous factors were calculated.
(§1) OLF was measured using ouabain EIA. This assay uses ouabain covalently bound to the microtiter plate to compete with unbound samples or standards for binding to a constant amount of anti-ouabain antibody (Harris et al., 1991). Dihydroouabain-like immunoreactivity was measured by EIA using a polyclonal dihydroouabain-specific antibody prepared according to our specifications by HTI Bio-Product Inc (Ramona, Calif.). The antibody production strategy was as follows: dihydroouabain (dho) was conjugated to keyhole limpet hemocyanin (KLH) through the rhamnose sugar ring and the resulting conjugate was injected in three rabbits. Blood samples from the rabbits were drawn three weeks after the primary injection, and every two weeks after subsequent booster injections.
Two specific antibodies, one against ouabain and one against dihydroouabain, were used to characterize OLF and DH-OLF. Both of these antibodies are sensitive to structural changes at the lactone ring epitope of these molecules. […] The concentrations were determined using molar absorptivities as described above.

[2] = system: Na+,K+-ATPase α-subunits (porcine cerebral cortical tissue); experiment: Ouabain-stimulated 32Pi phosphorylation of Na+,K+-ATPase alpha subunit; format: biochemical; conditions: equimolar concentrations; ouabain = 100%; listed as Dho
Description: The ouabain-stimulated phosphorylation of Na^+, K^+-ATPase by phosphate was performed as described in Huang et al., (1994) with some minor modifications. Since the covalently phosphorylated intermediate of the sodium pump formed from inorganic phosphorous (^32Pi) is alkali-labile (acid-stable phosphenzyme intermediate), acidic pH gel electrophoresis was used to resolve the radioactively labeled protein species. Briefly, 60 μl aliquots containing 100-200 μg of porcine cerebral cortical tissues (PCC) were pre-incubated at room temperature for 25 min. with 20 μl of sample in the reaction buffer (50 mM Tris-HCL and 2 mM MgCl2, pH 7.2). A positive control was pre-incubated with 20 μl of a 1 mM ouabain solution also, a negative control was pre-incubated with 20 μl of buffer alone. 10 μl of ^32Pi (1 mCi in 100 μl) was diluted with 250 μl of phosphoric acid and purified through 0.2 μm filter to remove polyphosphates. At the end of the incubation, 20 μl of the ^32Pi filtrate (30 μM, 8 uCi) was added to the mixture and allowed to incubate at room temperature for an additional 15 minutes. The reaction was terminated by the addition of 1 ml 8% HCLO4 which precipitated the proteins and left unincorporated ^32Pi in solution. […] Autoradiograms were quantitated using a soft laser scanning densitometer. […]

[3] = system: anti-dihydroouabain antibody; experiment: Dihydroouabain EIA, cross-reactivity with anti-dihydroouabain antibody; format: binding, rabbit; conditions: dihydroouabain = 100%
Description: as §1, with “injections. […]” for “injections.”
Briefly, immunoassay plates were coated with approximately 0.5 μg dho-BSA conjugate/well for a minimum of 18 hrs. at 4° C. […] Color development was monitored at 650 nm for a maximum of 30 min. after which the reaction was stopped with TMB Stop buffer and the plate was then read at 450 nm. The readings were adjusted with a system blank and for non-specific binding.
Two specific antibodies, one against ouabain and one against dihydroouabain, were used to characterize OLF and DH-OLF. […] The concentrations were determined using molar absorptivities as described above.

SMILES: C[C@@H]1O[C@@H](O[C@H]2C[C@@H](O)[C@]3(CO)[C@H]4[C@H](O)C[C@]5(C)[C@@H]([C@@H]6COC(=O)C6)CC[C@]5(O)[C@@H]4CC[C@]3(O)C2)[C@H](O)[C@H](O)[C@H]1O [dho-B]
- pIC50 ([1]; porcine cerebral cortex enzyme, read-out: IC50 for inhibiting the catalytic activity of the Na+,K+-ATPase enzyme): 5.77
- times less potent than ouabain for inhibition of Na+,K+-ATPase ([1]; relative to ouabain): 3 times

SMILES: C[C@@H]1O[C@@H](O[C@H]2C[C@@H](O)[C@]3(CO)[C@H]4[C@H](O)C[C@]5(C)[C@@H]([C@@H]6COC(=O)C6)CC[C@]5(O)[C@@H]4CC[C@]3(O)C2)[C@H](O)[C@H](O)[C@H]1O [dihydroouabain, Dihydroouabain]
- affinity for anti-ouabain antibody (anti-ouabain antibody): little affinity
- cross-reactivity with ouabain antibody (anti-ouabain antibody): 2-3%
- phosphorylation activity relative to ouabain [2]: 82%
- cross-reactivity with dihydroouabain antibody [3]: 100%

SMILES: C[C@@H]1O[C@@H](O[C@H]2C[C@@H](O)[C@]3(CO)[C@H]4[C@H](O)C[C@]5(C)[C@@H](C6=CC(=O)OC6)CC[C@]5(O)[C@@H]4CC[C@]3(O)C2)[C@H](O)[C@H](O)[C@H]1O [ouabain, Ouabain]
- cross-reactivity with ouabain antibody (anti-ouabain antibody): 100%
- cross-reactivity with dihydroouabain antibody [3]: 0.1%
